pIC50: −log10 of the molar value. The source made the active and inactive calls. The rule behind the calls is not given here.

The results in this text go back to ChEMBL document CHEMBL1287803, “Synthesis of 4β-N-polyaromatic substituted podophyllotoxins: DNA topoisomerase inhibition, anticancer and apoptosis-inducing activities” (Bioorg Med Chem, 2010).

In one assay the test system is PC-3. Briefly: Anticancer activity against human PC3 cells assessed as cell viability after 48 hrs by SRB assay. Type of assay: functional, cell-based. To be noted: PC-3, 48 h. (In general: The SRB assay estimates cell density from bound dye.)
The subject of another assay is DU-145. As to the kind of experiment: Anticancer activity against human DU145 cells assessed as cell viability after 48 hrs by SRB assay. It counts as functional, cell-based. The note with it: DU-145, 48 h.
The next assay concerns A549. As to the kind of experiment: Anticancer activity against human A549 cells assessed as cell viability after 48 hrs by SRB assay. Type of assay: functional, cell-based. To be noted: A549, 48 h.
The test system of another assay is IMR-32. As to the kind of experiment: Anticancer activity against human IMR32 cells assessed as cell viability after 48 hrs by SRB assay. To be noted: IMR-32, 48 h. It counts as functional, cell-based.
A further assay concerns HCT-15. As to the kind of experiment: Anticancer activity against human HCT15 cells assessed as cell viability after 48 hrs by SRB assay. Type of assay: functional, cell-based. To be noted: HCT-15, 48 h.
The next assay concerns HEp-2. Briefly: Anticancer activity against human Hep2 cells assessed as cell viability after 48 hrs by SRB assay. It counts as functional, cell-based. The note with it: HEp-2, 48 h.
Assay [1] in a line: Anticancer activity against human 502713 cells assessed as cell viability after 48 hrs by SRB assay. It counts as functional, cell-based. To be noted: Homo sapiens, 502713, 48 h.
Assay [2] can be described thus: Inhibition of DNA topoisomerase 2 assessed as inhibition of relaxation of supercoiled pBR322 plasmid DNA at 1 mM by gel electrophoresis.
Assay [3] in a line: Inhibition of DNA topoisomerase 2 assessed as inhibition of relaxation of supercoiled pBR322 plasmid DNA at 10 to 500 uM by gel electrophoresis.
A short description of assay [4]: Inhibition of DNA topoisomerase 2 assessed as inhibition of relaxation of supercoiled pBR322 plasmid DNA at 10 uM by gel electrophoresis.
The test system of assay [5] is MOLT-4. Briefly: Induction of apoptosis in human MOLT4 cells assessed as DNA fragmentation at 1 uM after 24 hrs by agarose gel electrophoresis. Type of assay: functional, cell-based.
Assay [6] concerns MOLT-4. Briefly: Cell cycle arrest in human MOLT4 cells assessed as accumulation at sub G1 phase at 10 uM after 24 hrs using propidium iodide staining by flow cytometry. Type of assay: functional, cell-based.
The test system of assay [7] is MOLT-4. As to the kind of experiment: Induction of apoptosis in human MOLT4 cells assessed as DNA fragmentation at 10 uM after 24 hrs by agarose gel electrophoresis. It counts as functional, cell-based.
The test system of assay [8] is MOLT-4. As to the kind of experiment: Cell cycle arrest in human MOLT4 cells assessed as accumulation at sub G1 phase at 0.5 uM after 24 hrs using propidium iodide staining by flow cytometry. Type of assay: functional, cell-based. (In general: In flow cytometry, cells or beads pass a laser one at a time.)
In assay [9] the test system is MOLT-4. As to the kind of experiment: Cell cycle arrest in human MOLT4 cells assessed as accumulation at sub G1 phase at 5 uM after 24 hrs using propidium iodide staining by flow cytometry. Type of assay: functional, cell-based.
The test system of assay [10] is MOLT-4. As to the kind of experiment: Induction of apoptosis in human MOLT4 cells assessed as DNA fragmentation at 5 uM after 24 hrs by agarose gel electrophoresis. It counts as functional, cell-based.
Assay [11] deals with MOLT-4. Briefly: Cell cycle arrest in human MOLT4 cells assessed as accumulation at sub G1 phase at 1 uM after 24 hrs using propidium iodide staining by flow cytometry. Type of assay: functional, cell-based.
Assay [12] deals with MOLT-4. As to the kind of experiment: Induction of apoptosis in human MOLT4 cells assessed as DNA fragmentation at 0.5 uM after 24 hrs by agarose gel electrophoresis. It counts as functional, cell-based.

By pIC50 is commonly meant the negative decadic logarithm of the IC50, by convention in mol/L. Turning to `COc1cc([C@@H]2c3cc4c(cc3[C@@H](Nc3ccc(C(=O)c5ccc(N(CCCl)CCCl)cc5)cc3)[C@H]3COC(=O)[C@H]23)OCO4)cc(OC)c1OC`, the pIC50 in the assay on PC-3 is 5.59; with DU-145 it was 5.43; with A549, 5.51; with IMR-32, 5.20; with HCT-15 it was 6.05; in the assay on HEp-2, 6.05. In [1], the pIC50 is 7.00.

As to `COc1cc([C@@H]2c3cc4c(cc3[C@@H](Nc3ccc5ccc6cccc7ccc3c5c67)[C@H]3COC(=O)[C@H]23)OCO4)cc(OC)c1OC`, the pIC50 in the assay on PC-3 is 10.00; in the assay on A549 it was 9.05; in the assay with HCT-15 it was 10.00; in [1], 8.70. For the same compound, the inhibition result in [2] and in assay [3] was “Active” each time.

Regarding `COc1cc([C@@H]2c3cc4c(cc3[C@@H](O[C@@H]3O[C@@H]5CO[C@@H](C)O[C@H]5[C@H](O)[C@H]3O)[C@H]3COC(=O)[C@H]23)OCO4)cc(OC)c1O` [ETOPOSIDE], the inhibition result in [4] is “Active”. For the same compound, the pIC50 was 5.59 with PC-3; 5.43 with DU-145; 5.51 in the assay with A549; 5.20 with IMR-32; 6.05 with HCT-15; 6.05 in the assay on HEp-2. Besides, the pIC50 in [1] was 7.00.

Consider `COc1cc([C@@H]2c3cc4c(cc3[C@@H](Nc3cccc5cc6ccccc6cc35)[C@H]3COC(=O)[C@H]23)OCO4)cc(OC)c1OC`, for which the pIC50 with PC-3 was 5.10; in the assay on DU-145, 4.68; in the assay on A549, 5.06; in the assay with IMR-32, 5.17; in the assay on HCT-15 it was 5.20; in the assay on HEp-2, 5.17. Further, the pIC50 in assay [1] was 5.03.

On to `COc1cc([C@@H]2c3cc4c(cc3[C@@H](Nc3ccc(C(=O)c5ccc(F)cc5)cc3)[C@H]3COC(=O)[C@H]23)OCO4)cc(OC)c1O`, for which the pIC50 with PC-3 is 5.22; in the assay on DU-145 it was 6.52; with A549 it was 6.70; in the assay with IMR-32, 5.89; in the assay on HCT-15, 7.10; in the assay on HEp-2, 5.89. In addition, in assay [1], the pIC50 is 5.85.

With `COc1cc([C@@H]2c3cc4c(cc3[C@@H](Nc3cc5c6ccccc6ccc5c5ccccc35)[C@H]3COC(=O)[C@H]23)OCO4)cc(OC)c1OC`, the outcome in the assay on MOLT-4 [5], in the assay on MOLT-4 [6], in the assay on MOLT-4 [7], in the assay on MOLT-4 [8], with MOLT-4 [9] and in the assay on MOLT-4 [10] was Active. Besides, the outcome with MOLT-4 [11] and with MOLT-4 [12] was Active. Besides, the pIC50 with PC-3 is 7.00; in the assay with DU-145, 5.66; with A549, 7.40; in the assay with IMR-32, 8.52; in the assay with HCT-15, 8.70; with HEp-2, 8.70. In addition, the pIC50 in assay [1] was 7.00. Moreover, the inhibition result in assay [2] and in assay [3] was “Active” throughout.

For the compound `CC[C@@]1(O)C(=O)OCc2c1cc1n(c2=O)Cc2cc3ccccc3nc2-1` [CAMPTOTHECIN], the pIC50 in the assay with PC-3 was 7.52; in the assay with DU-145, 7.70; in the assay with A549, 7.52; with IMR-32, 7.10; in the assay with HCT-15, 7.17; in the assay with HEp-2, 6.15. Further, the outcome in the assay with MOLT-4 [9] was Active.

With `COc1cc([C@@H]2c3cc4c(cc3[C@@H](Nc3cccc5c3Cc3ccccc3-5)[C@H]3COC(=O)[C@H]23)OCO4)cc(OC)c1O`, the pIC50 was 6.30 in the assay on PC-3; 5.57 in the assay on DU-145; 6.00 with A549; 5.00 with IMR-32; 10.00 in the assay with HCT-15; 6.00 in the assay with HEp-2. Also, in assay [1], the pIC50 was 9.00.

Take `COc1cc([C@@H]2c3cc4c(cc3[C@@H](Nc3ccc(C(=O)c5ccc(F)cc5)cc3)[C@H]3COC(=O)[C@H]23)OCO4)cc(OC)c1OC`: the pIC50 was 5.17 in the assay on PC-3; 4.77 in the assay on A549; 4.72 with IMR-32; 5.21 in the assay with HCT-15; 5.15 in the assay on HEp-2; 5.39 in assay [1].

On to `COc1cc([C@@H]2c3cc4c(cc3[C@@H](Nc3cccc5c3Cc3ccccc3-5)[C@H]3COC(=O)[C@H]23)OCO4)cc(OC)c1OC`, for which the pIC50 in the assay with PC-3 is 5.37; in the assay with DU-145, 5.18; in the assay on A549, 5.15; in the assay on IMR-32, 5.26; with HCT-15 it was 7.05; in the assay with HEp-2 it was 5.52. The pIC50 in assay [1] is 5.26.

Take `COc1cc([C@@H]2c3cc4c(cc3[C@@H](Nc3cc5c6ccccc6ccc5c5ccccc35)[C@H]3COC(=O)[C@H]23)OCO4)cc(OC)c1O`: the pIC50 is 9.52 in the assay on PC-3; 9.52 in the assay with DU-145; 9.52 with A549; 9.00 in the assay on IMR-32; 7.00 in the assay with HCT-15; 8.00 in the assay on HEp-2. Further, the pIC50 in assay [1] is 7.00. Moreover, the inhibition result in assay [2] and in assay [3] was “Active” throughout.

On to `COc1cc([C@@H]2c3cc4c(cc3[C@@H](Nc3cccc5cc6ccccc6cc35)[C@H]3COC(=O)[C@H]23)OCO4)cc(OC)c1O`, for which the pIC50 in the assay with DU-145 is 4.74; in the assay with A549, 5.08; in the assay on IMR-32, 5.64; in the assay with HCT-15 it was 5.09; with HEp-2 it was 5.07.

With `O=c1[nH]cc(F)c(=O)[nH]1` [FLUOROURACIL], the pIC50 was 4.92 in the assay with PC-3; 5.32 in the assay with DU-145; 5.62 with A549; 4.74 in the assay with IMR-32; 5.44 with HCT-15; 6.52 in the assay with HEp-2. Moreover, the pIC50 in assay [1] is 5.34.

As for `COc1cc([C@@H]2c3cc4c(cc3[C@@H](Nc3ccc5ccc6cccc7ccc3c5c67)[C@H]3COC(=O)[C@H]23)OCO4)cc(OC)c1O`, the pIC50 in the assay with DU-145 is 5.66; in the assay with A549, 5.77; with IMR-32, 6.70; with HCT-15, 10.00; in the assay on HEp-2, 9.70; in assay [1], 8.70.
